Measured values reported in the supplement of paper PMC13380429.

Key:
Conditions in all cases: 72 h
[1] = system: Vero E6; assay: drug sensitivity score (DSS) for viability; higher = more toxic; extreme values may be limits of the assay
[2] = system: Calu-3; assay: as above
[3] = system: HepG2; assay: as above
[4] = system: Caco-2; assay: as above
[5] = system: U2OS; assay: as above
[6] = system: Vero E6; assay: relative viability EC50 (midpoint between 100% and the lowest measured viability); higher = less toxic
[7] = system: Vero E6; assay: cell viability relative to DMSO; higher = less toxic
[8] = system: Calu-3; assay: as above
[9] = system: HepG2; assay: as above
[10] = system: Caco-2; assay: as above
[11] = system: U2OS; assay: as above
[12] = system: HepG2; assay: relative viability EC50 (midpoint between 100% and the lowest measured viability); higher = less toxic
[13] = system: U2OS; assay: as above
[14] = system: Calu-3; assay: as above

Row | Structure (SMILES) | drug sensitivity score [1] | drug sensitivity score [2] | drug sensitivity score [3] | drug sensitivity score [4] | drug sensitivity score [5] | relative viability EC50 [6] | cell viability ([7]; 1 nM) | cell viability ([7]; 10 nM) | cell viability ([7]; 100 nM) | cell viability ([7]; 1000 nM) | cell viability ([7]; 10000 nM) | cell viability ([8]; 1 nM) | cell viability ([8]; 10 nM) | cell viability ([8]; 100 nM) | cell viability ([8]; 1000 nM) | cell viability ([8]; 10000 nM) | cell viability ([9]; 1 nM) | cell viability ([9]; 10 nM) | cell viability ([9]; 100 nM) | cell viability ([9]; 1000 nM) | cell viability ([9]; 10000 nM) | cell viability ([10]; 1 nM) | cell viability ([10]; 10 nM) | cell viability ([10]; 100 nM) | cell viability ([10]; 1000 nM) | cell viability ([10]; 10000 nM) | cell viability ([11]; 1 nM) | cell viability ([11]; 10 nM) | cell viability ([11]; 100 nM) | cell viability ([11]; 1000 nM) | cell viability ([11]; 10000 nM) | relative viability EC50 [12] | relative viability EC50 [13] | relative viability EC50 [14]
1 | Cc1cc(-c2ccc(/N=N/c3ccc4c(S(=O)(=O)O)cc(S(=O)(=O)O)c(N)c4c3O)c(C)c2)ccc1/N=N/c1ccc2c(S(=O)(=O)O)cc(S(=O)(=O)O)c(N)c2c1O [evans-blue] | 4.2 | 1 | 4.9 | 2.8 | 4.2 | 1920 nM | 103% | 106% | 94% | 91.6% | 47.9% | 92.8% | 101% | 105% | 102% | 71.9% | 102% | 89.6% | 84.2% | 86.5% | 52.6% | 96.7% | 88.9% | 104% | 97.9% | 51.1% | 99% | 98.6% | 95.1% | 86.3% | 53.7% | – | – | –
2 | O=C(O)CCC(=O)c1ccc(-c2ccccc2)cc1 [fenbufen] | 0 | 0 | 0 | – | 0 | – | – | – | – | – | – | – | – | – | – | – | – | – | – | – | – | – | – | – | – | – | – | – | – | – | – | – | – | –
3 | Cc1cccc(C(=O)O)c1O [hydroxytoluic-acid] | 0 | – | 0 | – | 0 | > 10000 nM | 108% | 104% | 104% | 105% | 99% | – | – | – | – | – | 90.6% | 93.6% | 87.1% | 88.5% | 104% | – | – | – | – | – | 96.8% | 99.3% | 102% | 108% | 104% | > 10000 nM | > 10000 nM | –
4 | CC(=O)NC[C@H]1CN(c2ccc(N3CCOCC3)c(F)c2)C(=O)O1 [linezolid] | 0 | – | 0 | – | 0 | – | – | – | – | – | – | – | – | – | – | – | – | – | – | – | – | – | – | – | – | – | – | – | – | – | – | – | – | –
5 | CCNCCS(=O)(=O)NC[C@@]1(c2ccccc2)SC(NC(=O)C(C)(C)C)=NN1C(=O)C(C)(C)C [litronesib] | 13.9 | 2.8 | 23.3 | 12.7 | 15.5 | 146 nM | 97% | 107% | 82.9% | 38.8% | 41.9% | 95.1% | 91.9% | 87% | 84.3% | 81.2% | 89.4% | 72.9% | 35.9% | 34.7% | 33.6% | 98.1% | 91% | 62.9% | 67.9% | 62.2% | 104% | 96% | 58% | 49.7% | 44.8% | 11.9 nM | 48.8 nM | > 10000 nM
6 | COc1ccc(OC)c([C@@H](O)CNC(=O)CN)c1 [midodrine] | 0 | 0 | 0 | – | 0 | > 10000 nM | 102% | 97.8% | 106% | 95.8% | 108% | 89.1% | 98.7% | 95.7% | 95.6% | 98.3% | 109% | 102% | 118% | 99.1% | 109% | – | – | – | – | – | 99.1% | 104% | 100% | 106% | 105% | > 10000 nM | > 10000 nM | > 10000 nM
7 | CO[C@@]12[C@H](COC(N)=O)C3=C(C(=O)C(C)=C(N)C3=O)N1C[C@@H]1N[C@@H]12 [mitomycin-C] | 5.5 | 2.6 | 16.7 | – | 2.6 | – | – | – | – | – | – | – | – | – | – | – | – | – | – | – | – | – | – | – | – | – | – | – | – | – | – | – | – | –
8 | CC(C)(O)c1ccccc1CC[C@@H](SCC1(CC(=O)O)CC1)c1cccc(/C=C/c2ccc3ccc(Cl)cc3n2)c1 [montelukast] | 0 | 0 | 0 | – | 0 | – | – | – | – | – | – | – | – | – | – | – | – | – | – | – | – | – | – | – | – | – | – | – | – | – | – | – | – | –
9 | CCCCN(Cc1ccc(C(=O)NO)cc1)C(=O)Nc1ccccc1 [nexturastat-A] | 2.3 | 4.4 | 4.7 | 3.8 | 5.1 | – | 96.2% | 94.5% | 96.7% | 99.4% | 56.6% | 89.3% | 107% | 98.9% | 88% | 51.7% | 110% | 105% | 97.7% | 90% | 43.9% | 101% | 98.8% | 109% | 92.3% | 52.3% | 98.1% | 102% | 99.3% | 90.1% | 36.6% | 1830 nM | 1950 nM | –
10 | CCN(CC)CC#CCOC(=O)C(O)(c1ccccc1)C1CCCCC1 (stereo not drawn) [oxybutynin] | 0 | 0 | 0 | – | 0 | – | – | – | – | – | – | – | – | – | – | – | – | – | – | – | – | – | – | – | – | – | – | – | – | – | – | – | – | –
11 | Cc1cc(-c2nc3cc(F)ccc3s2)ccc1NC(=O)[C@@H](N)CCCCN [phortress] | 0 | 1.1 | 20 | 1.6 | 0 | > 10000 nM | 92.3% | 95.8% | 94.4% | 97.2% | 107% | 102% | 99.9% | 97.6% | 91.3% | 79.9% | 95.6% | 107% | 86.3% | 3.3% | 1.6% | 100% | 100% | 93.3% | 92.2% | 73.5% | 97.9% | 93.9% | 97.5% | 95.2% | 93.6% | 208 nM | > 10000 nM | > 10000 nM
12 | COc1cccc2c1c(O)c(C(=O)N(C)c1ccc(C(F)(F)F)cc1)c(=O)n2C [tasquinimod] | 0 | – | 0 | – | – | > 10000 nM | 94.9% | 98.9% | 96.7% | 93% | 93.9% | – | – | – | – | – | 114% | 104% | 105% | 98.9% | 102% | – | – | – | – | – | – | – | – | – | – | > 10000 nM | – | –
